Source: patent publication US20250375414A1, “UROLITHIN COMBINATIONS” (Amazentis SA, priority 2024, published 2025)

Legend:
[1] = system: Interleukin-6 (IL-6) secretion in human dermal fibroblasts (nHDF); assay: IL-6 in supernatant of cytokine mix-treated normal human dermal fibroblasts (nHDF) (ELISA); format: cell-based
Procedure: A dose of 0.025 ng/ml of Cytokines mix was applied to induce inflammation, measured by quantifying the levels of the pro-inflammatory cytokine interleukin 6 (IL-6) in the cell culture supernatant. For the experiment, cells were first pre-treated with either i) urolithin A 2.5 uM, ii) Zinc at 100 uM, iii) a combination of urolithin A 2.5 uM and Zinc 100 uM, iv) or DMSO as control for 24 h. Then cells were co-treated with both CTX and either urolithin A or Zinc alone or in combination, as above. After 24 h, IL-6 was measured in the cell supernatant to assess the ability of Urolithin A and Zinc to reduce Cytokines-induced inflammation.
Normal Human dermal fibroblasts (nHDF) purchased from Promocell (ref. C-12302) were seeded at 6000 cells per well in a 96 well plate (Greiner) using a DMEM Glutamax 1 g D-glucose (Gibco, ref 21885108) supplemented with FBS 10% (PanBiotech, ref P30-3033), 1% PenStrep (Biowest) and 1% Hepes (Biowest). All media were sterilized with a 0.45 μm filter unit (VWR). The day after the seeded cells were treated for 24 h with 1) Urolithin A (UA) resuspended in DMSO, Zinc gluconate (MedChemExpress Ref. HY-W145499) or a combination of the two at the indicated doses.Cytokine mix (“cytomix”) was added in addition of the previous treatment for another 24 h, cytokines were used equally for a total and final concentration of 0.025 ng/ml (mIFN-g (roche ref.11276905001), TNF-α (Peprotech ref. 300-01A) and IL-b (Proteintech ref. 200-011B)). The medium was collected and an ELISA for Interleukin-6 were performed following the instruction provided by the supplier (Proteintech ref. KE10007). Finally, the absorbance at a wavelength of 450 nm was measured using a microplate plate reader (Fluostar Optima, BMG Labtech). IL-6 data were finally normalized over cell number, calculated with a cell viability assay (Promega, ref. G7571).

[2] = system: Interleukin-6 (IL-6) secretion in C2C12 myotubes; assay: IL-6 release from cytomix (CTX)-inflamed C2C12 myotubes (ELISA of culture media); format: cell-based, mouse; settings: for Impact on the release of IL-6 (significance): FIG. 3
Procedure: We first studied what is the lowest non-functional dose of Urolithin A in the context of cytokine-mediated muscle cell inflammation. For this, we exposed C2C12 myotubes to increasing doses of Urolithin A within a range of 1.56 uM to […] for 24 hours, and then induced inflammation for an additional 24 hours by applying to cells a mix of pro-inflammatory cytokines (Cytomix, abbreviated CTX). One set of cells were left untreated, indicated by the first bar (CTX−, UA−). One set of cells were treated with CTX but not Urolithin A (second bar, CTX+, UA−). At the end of the study, we measure the concentration of the proinflammatory biomarker Interleukin 6 (IL-6) released in the cell culture media.
Based on the literature we used concentrations of ERGO at two low doses—potentially non-functional—i.e. 4 uM and 20 uM. […] As for the UA experiment in FIG. 1, we treated C2C12 with ERGO at these […] doses for 24 hours, followed by treatment with CTX for additional 24 hours.
For this combination experiment, C2C12 were treated without CTX, with CTX alone and with CTX plus either UA alone (6.25 uM), ERGO alone (both 20 uM and 100 uM) and UA plus ERGO 20 uM and UA+ERGO 100 uM.
C2C12 Myoblasts purchased from the American Type Culture Collection (ATCC; ref. CRL-1772) were seeded at 8000 cells per well in a 96 well plate (Greiner) using a DMEM Glutamax 4.5 g D-glucose (Gibco, ref 31966021) supplemented with FBS 10% (PanBiotech, ref P190902), 1% PenStrep (Biowest, Nuaill6, France) and 1% Hepes (Biowest). Cells were then differentiated for 6 days using a differentiation medium (DMEM Glutamax 4.5 g D-glucose (Gibco, ref 31966021), 2% Horse serum (Thermofisher, ref 160501229) 1% PenStrep and 1% Hepes). All our media were sterilized with a 0.45 μm filter unit (VWR). After 4 days of the differentiation cells were treated for 24 h with 1) Urolithin A (UA), Ergothieoneine (ERGO, MedChem Express HY-N1914) or a combination of the two at the indicated doses. Cytokine mix (“cytomix”) was added at day 5 in addition of the previous treatment for another 24 h, cytokines were respectively used at 5 ng (mIFN-γ (Roche ref.11276905001), TNF-α (Peprotech ref. 300-01A) and IL-β (Proteintech ref. 200-011B)). The medium was collected and an ELISA for Interleukin-6 were performed following the instruction provided by the supplier (Proteintech ref. KE10007). Finally, the absorbance at a wavelength of 450 nm was measured using a microplate plate reader (Fluostar Optima, BMG Labtech).

[3] = system: IL-6 levels in 3T3-L1 cells; settings: 3T3-L1 cells after stimulation with TNFα; cited from earlier work
[4] = system: IL-6 levels in stressed C2C12 cells; settings: cited from earlier work

Zinc gluconate
% reduction IL-6 ([1]; CTX vs. CTX + Zinc 100 uM, nHDF): −29.6%
Relative Change (%) Compared to CTX ([1]; Zinc 100 uM, CTX 0.025 ng/ml, IL-6 in nHDF supernatant): −29.57%
Reduction of CTX-mediated increase of IL-6 ([1]; Zinc 100 uM, nHDF): 29.6%

O=c1oc2cc(O)ccc2c2ccc(O)cc12 [UA, Urolithin A]
First dose at which UA did not exert a significant reduction in IL-6 (sub-functional dose) ([2]; C2C12 myotubes, CTX, FIG. 1): 6.25 µM
Effect on IL-6 release of CTX inflamed cells ([2]; UA 1.56 uM to 50 mM, 24 h, then CTX 24 h, FIG. 1): dose dependent decrease
Percent change in IL-6 vs CTX alone ([2]; UA 6.25 uM, 24 h, then cytomix (CTX) further 24 h, C2C12 myotubes): −5.2%
Impact on the release of IL-6 (significance) ([2]; UA alone 6.25 uM, CTX): did not significantly impact
% reduction IL-6 ([1]; CTX vs. CTX + UA 2.5 uM, nHDF): −25%

C[N+](C)(C)[C@@H](Cc1c[nH]c(=S)[nH]1)C(=O)[O-] [ERGO, ergothioneine]
Effect on IL-6 levels [3]: reduce IL-6 levels
Effect on IL-6 levels [4]: reduce IL-6 levels
Percent change in IL-6 vs CTX alone ([2]; ERGO 20 uM, 24 h, then CTX further 24 h, C2C12 myotubes): +1.2%
Percent change in IL-6 vs CTX alone ([2]; ERGO 100 uM, 24 h, then CTX further 24 h, C2C12 myotubes): −28%
Impact on IL6 (significance) ([2]; ERGO 100 uM, CTX): significant reduction
Impact on the release of IL-6 (significance) ([2]; ERGO alone 20 uM, CTX): did not significantly impact
Only dose leading to a significant decrease in CTX-induced IL-6 secretion ([2]; ERGO tested at 4 uM, 20 uM and 100 uM, FIG. 2): 100 µM
